Data as given in patent US8808743B2, “Benzonatate compositions and methods of use” (priority 2010, dated 2014).

Assay: Simulated buccal dissolution testing (stirred flow-thru cell, simulated saliva)
Format: physicochemical
Conditions: 8 mg dose
Excerpt: Most USP dissolution tests use large volumes of media—defined as ‘sink conditions’; the aim is to get complete dissolution of the active ingredient. […] They are: • Small volume • Short residence time • Solids transfer • Composition • Incomplete dissolution
For buccal dissolution the volume of saliva is very small compared to that of the stomach and the residence time in the mouth is also very short, the bulk of the dosage form being swallowed within a minute. The dissolution test used here employed procedures and a buccal dissolution apparatus devised by DOW Chemical described in U.S. Pat. No. 7,470,545 B2 herein incorporated by reference to the extent not incompatible herewith.
In order for this test to give meaningful results it is necessary to use a dissolution media that simulates saliva. There is no USP recommended simulated saliva, so the composition used in these studies was based on published ranges. The composition used is shown below:
The technique uses a stirred flow-thru cell with a very short residence time. The buccal dissolution test was set up using simulated saliva, with a liquid volume in the cell of 9 ml, and a flow rate of 5.3 ml/min (2.7 ml/min thru the dip tube to waste, and 2.6 ml/min thru the filter and the in-line UV cell). UV cell path length was 1 mm. The tests were run at room temperature
Buccal dissolution studies were carried out with neat Formosa benzonatate (abbreviated below as “Benz”) and benzonatate resinates prepared from this benzonatate. Preparation of the resinates was at room temperature for 40 hours by the procedure described in Example 2.
Dissolution data were obtained at several benzonatate dosages for both the neat benzonatate and the resinates, and the data were normalized to a dosage of 8 mg. The normalized benzonatate dissolution data are given in Table VII and are plotted as a function of time in FIG. 6.

Benzonatate Conc. In Effluent (0 sec): 0 mg/L | Benzonatate Conc. In Effluent (5 sec): 0 mg/L | Benzonatate Conc. In Effluent (10 sec): 0 mg/L | Benzonatate Conc. In Effluent (15 sec): 37.3 mg/L | Cumulative Benzonatate Released (15 sec): 0.008 mg | Benzonatate Conc. In Effluent (20 sec): 192.8 mg/L | Cumulative Benzonatate Released (20 sec): 0.059 mg | Benzonatate Conc. In Effluent (25 sec): 353.0 mg/L | Cumulative Benzonatate Released (25 sec): 0.180 mg | Benzonatate Conc. In Effluent (30 sec): 473.4 mg/L | Cumulative Benzonatate Released (30 sec): 0.362 mg | Benzonatate Conc. In Effluent (35 sec): 544.2 mg/L | Cumulative Benzonatate Released (35 sec): 0.587 mg | Benzonatate Conc. In Effluent (40 sec): 574.7 mg/L | Cumulative Benzonatate Released (40 sec): 0.834 mg | Benzonatate Conc. In Effluent (45 sec): 585.5 mg/L | Cumulative Benzonatate Released (45 sec): 1.090 mg | Benzonatate Conc. In Effluent (50 sec): 573.6 mg/L | Cumulative Benzonatate Released (50 sec): 1.346 mg | Benzonatate Conc. In Effluent (55 sec): 559.0 mg/L | Cumulative Benzonatate Released (55 sec): 1.596 mg | Benzonatate Conc. In Effluent (60 sec): 541.7 mg/L | Cumulative Benzonatate Released (60 sec): 1.839 mg | Benzonatate Conc. In Effluent (65 sec): 519.6 mg/L | Cumulative Benzonatate Released (65 sec): 2.074 mg | Benzonatate Conc. In Effluent (70 sec): 498.0 mg/L | Cumulative Benzonatate Released (70 sec): 2.298 mg | Benzonatate Conc. In Effluent (75 sec): 480.4 mg/L | Cumulative Benzonatate Released (75 sec): 2.514 mg | Benzonatate Conc. In Effluent (80 sec): 460.2 mg/L | Cumulative Benzonatate Released (80 sec): 2.722 mg | Benzonatate Conc. In Effluent (85 sec): 439.9 mg/L | Cumulative Benzonatate Released (85 sec): 2.921 mg | Benzonatate Conc. In Effluent (90 sec): 421.8 mg/L | Cumulative Benzonatate Released (90 sec): 3.111 mg | Benzonatate Conc. In Effluent (95 sec): 403.2 mg/L | Cumulative Benzonatate Released (95 sec): 3.293 mg | Benzonatate Conc. In Effluent (100 sec): 387.3 mg/L | Cumulative Benzonatate Released (100 sec): 3.468 mg | Benzonatate Conc. In Effluent (105 sec): 369.4 mg/L | Cumulative Benzonatate Released (105 sec): 3.635 mg | Benzonatate Conc. In Effluent (110 sec): 353.5 mg/L | Cumulative Benzonatate Released (110 sec): 3.795 mg | Benzonatate Conc. In Effluent (115 sec): 337.8 mg/L | Cumulative Benzonatate Released (115 sec): 3.947 mg | Benzonatate Conc. In Effluent (120 sec): 323.0 mg/L | Cumulative Benzonatate Released (120 sec): 4.093 mg | Benzonatate Conc. In Effluent (125 sec): 308.9 mg/L | Cumulative Benzonatate Released (125 sec): 4.233 mg | Benzonatate Conc. In Effluent (130 sec): 294.9 mg/L | Cumulative Benzonatate Released (130 sec): 4.366 mg | Benzonatate Conc. In Effluent (135 sec): 282.2 mg/L | Cumulative Benzonatate Released (135 sec): 4.494 mg | Benzonatate Conc. In Effluent (140 sec): 269.8 mg/L | Cumulative Benzonatate Released (140 sec): 4.615 mg | Benzonatate Conc. In Effluent (145 sec): 257.6 mg/L | Cumulative Benzonatate Released (145 sec): 4.732 mg | Benzonatate Conc. In Effluent (150 sec): 246.0 mg/L | Cumulative Benzonatate Released (150 sec): 4.843 mg | Benzonatate Conc. In Effluent (155 sec): 235.2 mg/L | Cumulative Benzonatate Released (155 sec): 4.949 mg | Benzonatate Conc. In Effluent (160 sec): 224.7 mg/L | Cumulative Benzonatate Released (160 sec): 5.051 mg | Benzonatate Conc. In Effluent (165 sec): 214.7 mg/L | Cumulative Benzonatate Released (165 sec): 5.148 mg | Benzonatate Conc. In Effluent (170 sec): 205.2 mg/L | Cumulative Benzonatate Released (170 sec): 5.241 mg | Benzonatate Conc. In Effluent (175 sec): 195.8 mg/L | Cumulative Benzonatate Released (175 sec): 5.329 mg | Benzonatate Conc. In Effluent (180 sec): 187.1 mg/L | Cumulative Benzonatate Released (180 sec): 5.414 mg | Benzonatate Conc. In Effluent (185 sec): 178.8 mg/L | Cumulative Benzonatate Released (185 sec): 5.495 mg | Benzonatate Conc. In Effluent (190 sec): 170.9 mg/L | Cumulative Benzonatate Released (190 sec): 5.572 mg | Benzonatate Conc. In Effluent (195 sec): 163.1 mg/L | Cumulative Benzonatate Released (195 sec): 5.646 mg | Benzonatate Conc. In Effluent (200 sec): 155.8 mg/L | Cumulative Benzonatate Released (200 sec): 5.716 mg | Benzonatate Conc. In Effluent (205 sec): 148.8 mg/L | Cumulative Benzonatate Released (205 sec): 5.783 mg | Benzonatate Conc. In Effluent (210 sec): 142.0 mg/L | Cumulative Benzonatate Released (210 sec): 5.848 mg | Benzonatate Conc. In Effluent (215 sec): 135.6 mg/L | Cumulative Benzonatate Released (215 sec): 5.909 mg | Benzonatate Conc. In Effluent (220 sec): 129.6 mg/L | Cumulative Benzonatate Released (220 sec): 5.967 mg | Benzonatate Conc. In Effluent (225 sec): 123.7 mg/L | Cumulative Benzonatate Released (225 sec): 6.023 mg | Benzonatate Conc. In Effluent (230 sec): 118.3 mg/L | Cumulative Benzonatate Released (230 sec): 6.077 mg | Benzonatate Conc. In Effluent (235 sec): 112.9 mg/L | Cumulative Benzonatate Released (235 sec): 6.128 mg | Benzonatate Conc. In Effluent (240 sec): 107.8 mg/L | Cumulative Benzonatate Released (240 sec): 6.177 mg | Benzonatate Conc. In Effluent (245 sec): 102.9 mg/L | Cumulative Benzonatate Released (245 sec): 6.223 mg | Benzonatate Conc. In Effluent (250 sec): 98.3 mg/L | Cumulative Benzonatate Released (250 sec): 6.268 mg | Benzonatate Conc. In Effluent (255 sec): 93.7 mg/L | Cumulative Benzonatate Released (255 sec): 6.310 mg | Benzonatate Conc. In Effluent (260 sec): 89.7 mg/L | Cumulative Benzonatate Released (260 sec): 6.350 mg | Benzonatate Conc. In Effluent (265 sec): 85.6 mg/L | Cumulative Benzonatate Released (265 sec): 6.389 mg | Benzonatate Conc. In Effluent (270 sec): 81.8 mg/L | Cumulative Benzonatate Released (270 sec): 6.426 mg | Benzonatate Conc. In Effluent (275 sec): 78.0 mg/L | Cumulative Benzonatate Released (275 sec): 6.461 mg | Benzonatate Conc. In Effluent (280 sec): 74.5 mg/L | Cumulative Benzonatate Released (280 sec): 6.495 mg | Benzonatate Conc. In Effluent (285 sec): 71.3 mg/L | Cumulative Benzonatate Released (285 sec): 6.527 mg | Benzonatate Conc. In Effluent (290 sec): 68.1 mg/L | Cumulative Benzonatate Released (290 sec): 6.558 mg | Benzonatate Conc. In Effluent (295 sec): 64.8 mg/L | Cumulative Benzonatate Released (295 sec): 6.587 mg | Benzonatate Conc. In Effluent (300 sec): 61.6 mg/L | Cumulative Benzonatate Released (300 sec): 6.615 mg
Compound: CCCCNc1ccc(C(=O)OCCOCCOCCOCCOCCOCCOCCOCCOCCOC)cc1 [BENZ, benzonatate]
